The series can be described thus: Blood concentration of E1 after oral dosing of the compounds to mice (HPLC). The series is classed as in vivo. The conditions noted are these: fasted female Balb/c mice, pooled blood of 3 mice. On the procedure: Compounds were administered as single doses of 0.2mmole/kg in 0.1ml of 1% carboxymethyl cellulose by oral gavage to female Balb/c mice weighing 20g. Food was withheld from the mice for 18 hours prior to the start of the experiment. Blood was collected by cardiac puncture using heparinised syringes 15, 60 and 180 mins after dosing. Equal volumes (0.2ml) from 3 mice were pooled at each time point and 0.6ml of ice-cold ethanol was added. Following chilling at -20°C and centrifugation, 0.5ml of supernatant was dried under reduced pressure. The sample was then reconstituted with 0.5ml of 0.4M NH₄OAc (pH 6.0) and analysed by HPLC.

SMILES strings stand for the structures. Like-named read-outs stand apart in the source and are kept apart here.

In the case of `Nc1nc(O)c2ncn(OCCCO)c2n1` [Example E1, 9-(3-hydroxyprop-1-oxy)guanine], the concentration by setting is: (Expt. 1, 15 min after single oral gavage dose of 0.2mmole/kg in 1% carboxymethyl cellulose, read-out: 9-(3-Hydroxypropoxy)guanine (E1) conc. (µM) in blood at time (min) after dosing: 15) 5.2 µM; (Expt. 1, 60 min after single oral gavage dose of 0.2mmole/kg in 1% carboxymethyl cellulose, read-out: 9-(3-Hydroxypropoxy)guanine (E1) conc. (µM) in blood at time (min) after dosing: 60) 2 µM; (Expt. 2, 15 min after single oral gavage dose of 0.2mmole/kg in 1% carboxymethyl cellulose, read-out: 9-(3-Hydroxypropoxy)guanine (E1) conc. (µM) in blood at time (min) after dosing: 15) 11 µM. The concentration at 1 h (mouse, 200 umol/kg, Expt. 2, 60 min after single oral gavage dose of 0.2mmole/kg in 1% carboxymethyl cellulose, read-out: 9-(3-Hydroxypropoxy)guanine (E1) conc. (µM) in blood at time (min) after dosing: 60) came out at 3.3 µM.
